Test results as given in publication PMC10341573, “Design, Synthesis, and Biological Evaluation of Novel Quinazolin-4(3H)-One-Based Histone Deacetylase 6 (HDAC6) Inhibitors for Anticancer Activity” (International Journal of Molecular Sciences, 2023).
Like-named read-outs stand apart in the source and are kept apart here.

Assays:
HDAC4 = molecular target: T1, HDAC4 (Homo sapiens, UniProt P56524); experiment: HDAC enzyme activity assay (fluorogenic, Boc-Lys(trifluoroacetyl)-AMC), HDAC4; format: biochemical; conditions: class IIa HDAC4; mean ± SD, triplicate
T1 construct: catalytic domain of HDAC4 (T648-T1057, full length: UniProt P56524); made in house; host or cells: E. coli BL21(DE3), pET14b vector
T1 sequence (P56524 648-1057): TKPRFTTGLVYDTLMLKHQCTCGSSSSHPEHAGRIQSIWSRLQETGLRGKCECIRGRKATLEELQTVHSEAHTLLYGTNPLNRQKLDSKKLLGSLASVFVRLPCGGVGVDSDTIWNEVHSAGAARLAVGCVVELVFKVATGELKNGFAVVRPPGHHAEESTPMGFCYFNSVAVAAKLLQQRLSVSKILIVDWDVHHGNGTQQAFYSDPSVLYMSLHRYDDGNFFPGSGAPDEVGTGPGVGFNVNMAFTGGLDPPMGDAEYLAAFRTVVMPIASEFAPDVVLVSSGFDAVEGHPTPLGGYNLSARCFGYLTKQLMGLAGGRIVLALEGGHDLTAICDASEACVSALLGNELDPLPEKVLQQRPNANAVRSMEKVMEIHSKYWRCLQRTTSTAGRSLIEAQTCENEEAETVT

HDAC6 = molecular target: T2, HDAC6 (Homo sapiens, UniProt Q9UBN7); experiment: HDAC enzyme activity assay (fluorogenic, Boc-Lys(acetyl)-AMC), HDAC6; format: biochemical; conditions: class IIb HDAC6; mean ± SD, triplicate
T2 construct: Full-length recombinant HDAC6 was purchased from BPS Bioscience; purchased BPS Bioscience
T2 sequence (Q9UBN7 1-1215): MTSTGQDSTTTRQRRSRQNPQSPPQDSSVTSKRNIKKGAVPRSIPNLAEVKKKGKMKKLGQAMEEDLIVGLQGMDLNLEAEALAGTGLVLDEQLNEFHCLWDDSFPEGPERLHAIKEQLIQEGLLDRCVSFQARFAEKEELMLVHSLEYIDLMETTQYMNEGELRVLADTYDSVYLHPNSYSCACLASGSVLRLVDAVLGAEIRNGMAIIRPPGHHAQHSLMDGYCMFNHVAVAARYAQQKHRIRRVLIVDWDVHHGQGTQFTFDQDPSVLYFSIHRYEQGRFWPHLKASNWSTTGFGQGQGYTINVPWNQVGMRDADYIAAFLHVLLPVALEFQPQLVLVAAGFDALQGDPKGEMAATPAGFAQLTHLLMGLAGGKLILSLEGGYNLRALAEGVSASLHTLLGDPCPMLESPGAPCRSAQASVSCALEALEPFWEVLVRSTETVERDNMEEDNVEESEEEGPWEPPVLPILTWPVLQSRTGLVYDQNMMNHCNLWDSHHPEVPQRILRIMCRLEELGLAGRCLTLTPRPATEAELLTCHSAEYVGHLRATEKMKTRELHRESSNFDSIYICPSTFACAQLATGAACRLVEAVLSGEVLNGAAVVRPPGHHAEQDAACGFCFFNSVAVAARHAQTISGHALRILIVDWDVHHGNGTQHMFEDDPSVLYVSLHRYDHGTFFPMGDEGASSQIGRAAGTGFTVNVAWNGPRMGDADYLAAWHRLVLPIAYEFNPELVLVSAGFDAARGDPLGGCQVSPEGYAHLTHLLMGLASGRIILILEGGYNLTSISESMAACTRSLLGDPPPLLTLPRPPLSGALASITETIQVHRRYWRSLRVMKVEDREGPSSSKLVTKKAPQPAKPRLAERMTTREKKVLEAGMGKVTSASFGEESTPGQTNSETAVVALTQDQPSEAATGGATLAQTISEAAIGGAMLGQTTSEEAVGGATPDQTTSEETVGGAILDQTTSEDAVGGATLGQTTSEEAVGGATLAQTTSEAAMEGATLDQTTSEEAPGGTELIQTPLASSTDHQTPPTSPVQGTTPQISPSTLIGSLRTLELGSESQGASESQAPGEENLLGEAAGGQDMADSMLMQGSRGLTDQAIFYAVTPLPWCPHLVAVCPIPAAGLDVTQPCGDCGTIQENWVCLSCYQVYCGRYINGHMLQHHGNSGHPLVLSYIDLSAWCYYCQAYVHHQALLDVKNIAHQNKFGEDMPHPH

HDAC8 = molecular target: T3, HDAC8 (Homo sapiens, UniProt Q9BY41); experiment: HDAC enzyme activity assay (fluorogenic, Boc-Lys(trifluoroacetyl)-AMC), HDAC8; format: biochemical; conditions: class I HDAC8; mean ± SD, triplicate
T3 construct: codon-optimized full-length HDAC8; made in house; host or cells: E. coli BL21(DE3), pET14b vector
T3 sequence (Q9BY41 1-377): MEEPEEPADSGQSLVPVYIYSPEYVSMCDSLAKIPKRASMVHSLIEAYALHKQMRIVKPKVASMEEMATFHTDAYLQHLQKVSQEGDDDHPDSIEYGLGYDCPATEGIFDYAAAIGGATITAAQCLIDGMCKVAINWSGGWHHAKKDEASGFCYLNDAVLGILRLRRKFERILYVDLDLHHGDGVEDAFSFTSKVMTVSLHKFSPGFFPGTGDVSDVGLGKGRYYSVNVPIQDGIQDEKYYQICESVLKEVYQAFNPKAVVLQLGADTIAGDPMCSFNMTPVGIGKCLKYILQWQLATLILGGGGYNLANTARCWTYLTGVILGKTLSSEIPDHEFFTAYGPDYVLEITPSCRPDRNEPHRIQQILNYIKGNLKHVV

HCT116 = experiment: MTT cell proliferation assay, HCT116; format: cell-based, human; conditions: MTT, 72 h, mean ± SD, triplicate, read-out: IC50 ± SD HCT116
MCF7 = experiment: MTT cell proliferation assay, MCF7; format: cell-based, human; conditions: MTT, 72 h, mean ± SD, triplicate, read-out: IC50 ± SD MCF7
B16 = experiment: MTT cell proliferation assay, B16; format: cell-based, murine; conditions: MTT, 72 h, mean ± SD, triplicate, read-out: IC50 ± SD B16
HEK 293 = experiment: MTT cell proliferation assay, HEK 293; format: cell-based, human; conditions: MTT, 72 h, mean ± SD, triplicate, read-out: IC50 ± SD HEK 293

IC50 (HDAC4) | IC50 (HDAC6) | IC50 (HDAC8) | IC50 (HCT116; Homo sapiens, HCT-116) | IC50 (MCF7; Homo sapiens, MCF7, 72 h) | IC50 (B16; Mus musculus, B16) | SMILES | IC50 (HEK 293; Homo sapiens, HEK293) | IC50 (HCT116) | IC50 (MCF7) | IC50 (B16) | IC50 (HEK 293)
4.5 ± 1.2 µM | 5.6 ± 0.6 µM | 24 µM | 46.2 ± 20 µM | 26.5 ± 3.5 µM | 48.8 ± 9.68 µM | O=C(NO)c1ccc(CSc2nc3ccccc3c(=O)n2-c2ccc(Cl)cc2)cc1 [Compound 5a, 4-(((3-(4-chlorophenyl)-4-oxo-3,4-dihydroquinazolin-2-yl)thio)methyl)-N-hydroxybenzamide] | 30.9 µM |  |  |  | 
2.3 ± 1.1 µM | 0.15 ± 0.01 µM | 1.4 ± 0.3 µM | 17.6 ± 1.77 µM | 24.3 ± 5.97 µM | 28.9 ± 2.32 µM | O=C(NO)c1ccc(CSc2nc3ccccc3c(=O)n2-c2ccccc2)cc1 [Compound 5b, N-hydroxy-4-(((4-oxo-3-phenyl-3,4-dihydroquinazolin-2-yl)thio)methyl)benzamide] | 26.4 ± 5 µM |  |  |  | 
1.1 ± 0.4 µM | 1.1 ± 0.1 µM | 3 ± 0.5 µM | 46.4 ± 17.8 µM | 44.6 ± 1.07 µM | 26.1 ± 1.27 µM | O=C(NO)c1ccc(CSc2nc3ccccc3c(=O)n2-c2ccc(Br)cc2)cc1 [Compound 5e, 4-(((3-(4-bromophenyl)-4-oxo-3,4-dihydroquinazolin-2-yl)thio)methyl)-N-hydroxybenzamide] | > 50 µM |  |  |  | 
0.87 ± 0.31 µM | 0.26 ± 0.02 µM | 0.79 ± 0.16 µM | 30.7 ± 15.8 µM | 25.3 ± 3.21 µM | 23 ± 13.7 µM | Cc1cccc(-n2c(SCc3ccc(C(=O)NO)cc3)nc3ccccc3c2=O)c1 [Compound 5g, N-hydroxy-4-(((4-oxo-3-(m-tolyl)-3,4-dihydroquinazolin-2-yl)thio)methyl)benzamide] | > 50 µM |  |  |  | 
1.4 ± 0.5 µM | 0.17 ± 0.03 µM | 1.1 ± 0.3 µM | > 50 µM | > 50 µM | > 50 µM | O=C(NO)c1ccc(CSc2nc3ccccc3c(=O)n2-c2cccc(Cl)c2)cc1 [Compound 5h, 4-(((3-(3-chlorophenyl)-4-oxo-3,4-dihydroquinazolin-2-yl)thio)methyl)-N-hydroxybenzamide] | > 50 µM |  |  |  | 
8.4 ± 1.2 µM | 0.36 ± 0.04 µM | 2.9 ± 0.6 µM | 40.4 ± 16 µM | > 50 µM | > 50 µM | O=C(NO)c1ccc(CSc2nc3ccccc3c(=O)n2-c2ccccc2F)cc1 [Compound 5i, 4-(((3-(2-fluorophenyl)-4-oxo-3,4-dihydroquinazolin-2-yl)thio)methyl)-N-hydroxybenzamide] | > 50 µM |  |  |  | 
4.3 ± 1.2 µM | 0.65 ± 0.07 µM | 4 ± 1 µM | > 50 µM | > 50 µM | > 50 µM | O=C(NO)c1ccc(CSc2nc3cc(Cl)ccc3c(=O)n2-c2ccccc2)cc1 [Compound 5j, 4-(((7-chloro-4-oxo-3-phenyl-3,4-dihydroquinazolin-2-yl)thio)methyl)-N-hydroxybenzamide] | > 50 µM |  |  |  | 
0.56 ± 0.24 µM | 0.21 ± 0.05 µM | 3.3 ± 0.9 µM | > 50 µM | > 50 µM | > 50 µM | O=C(NO)c1ccc(CSc2nc3cc(Cl)ccc3c(=O)n2-c2ccccc2F)cc1 [Compound 5m, 4-(((7-chloro-3-(2-fluorophenyl)-4-oxo-3,4-dihydroquinazolin-2-yl)thio)methyl)-N-hydroxybenzamide] | > 50 µM |  |  |  | 
 |  |  | > 50 µM | > 50 µM | > 50 µM | C#Cc1cccc(Nc2ncnc3cc(OCCOC)c(OCCOC)cc23)c1 [Erlotinib, reference compound] | > 50 µM |  |  |  | 
 |  |  |  |  |  | CC(/C=C/C(=O)NO)=C\[C@@H](C)C(=O)c1ccc(N(C)C)cc1 [Trichostatin A, reference compound] |  | 18.3 ± 5.63 µM | 42.5 ± 11.3 µM | 28.9 ± 13 µM | 15.3 ± 1.45 µM
 |  |  | 1.34 ± 0.04 µM | 12.7 ± 4.68 µM | 1.99 ± 0.25 µM | CN1CCc2c(c3ccccc3n2Cc2ccc(C(=O)NO)cc2)C1 [Tubastatin, reference compound] | 1.26 ± 0.29 µM |  |  |  | 
